Test results as given in patent US11957767B2, “Compound targeting prostate specific membrane antigen, and preparation method and application thereof” (YANTAI LANNACHENG BIOTECHNOLOGY CO., LTD., priority 2021, dated 2024).

Assays:
[1] = test system: subcutaneous transplanted tumor, prostate cancer (22RV1); assay: Uptake of 177Lu labeled complex in subcutaneous transplanted tumor model mice with prostate cancer (tumor uptake and tissue distribution); format: in vivo; settings: 24 h after intravenous tail injection of 5 MBq; 22RV1 tumor model mice; FIG. 1
Description: The compound in Example 31 or another prior radioactive probe targeting PSMA was injected into subcutaneous transplanted tumor model mice with prostate cancer, and uptake results in tumors and distribution results in tissues were compared. A specific plan is as follows.
The subcutaneous transplanted tumor model mice with prostate cancer (22RV1) were randomly divided into 3 groups including an experimental group, a control group A and a control group B with 3 mice in each group.
[…] complex with purity of greater than 95% was prepared according to the method in Example 31. The complex is obtained by labeling compound 10 in Example 1 with ^177Lu, which was used as medicine B for the experimental group in the experiment. […]
5 MBq of medicine B, the medicine A and the medicine C were intravenously injected into tails of the mice in the experimental group, the control group A and the control group B, respectively. […] The obtained tissues were weighed, and measured by a y counter to obtain the radioactive counting of samples in the experimental group, the control group A and the control group B. Measured data were subtracted from the background, the decay time was corrected, and then average values were obtained. The data was expressed as the percentage of injected dose per gram tissue (% ID/g) of the dose uptake in tissues per gram in the injected dose.

PSMA positive lesions = settings: human, in vivo; cited from earlier work

O=C([O-])CN1CCN(CC(=O)[O-])CCN(CC(=O)NCC2CCC(C(=O)N[C@@H](Cc3ccc4ccccc4c3)C(=O)NCCCC[C@H](NC(=O)N[C@@H](CCC(=O)O)C(=O)O)C(=O)O)CC2)CCN(CC(=O)[O-])CC1.[177Lu+3] (some centres unmarked) [^177Lu-PSMA 617]
uptake in tumors [1]: 7.60±1.22 % ID/g
patients with no response to therapy (PSMA positive lesions): About 30%
